# Source: patent US20240335404A1, “SUBSTITUTED ESTERS CONTAINING POLYOLS AND SACCHARIDES FOR TREATING HEPATOTOXICITY AND FATTY LIVER DISEASES” (SINEW PHARMA INC., priority 2015, published 2024)
# Key:
# [1] = test system: fatty liver; assay: High fat diet-induced fatty liver in B6 mice; type: in vivo; conditions: HFD mice; for GSH / Gpx / Grd / SOD: liver; for ALT / AST / TC in liver / TG in liver: administration period of 4 weeks; for liver TC / liver TG: 4 or 8 weeks; for ALT and AST values: compounds administered separately
# Procedure: More than four mice were used in each group of the pre-test, while more than twelve mice were used in each group of the confirmatory test. […] The animal test was carried out according to the guideline for animal experiment of National Health Research Institutes. […] The weight of mice was recorded once a week. The tested animals were grouped randomly into Blank, High Fat Diet control (HFD), Positive Control (PS), and Test group. The animals of Blank were fed with normal feed. The animals of HFD were fed with high fat feed. […] The animals of Test group were fed with high fat feed, and additionally fed with test compounds by a tube. The animals of Blank were fed casually with normal feed for 12 weeks, while the animals of HFD, PS, and Test group were fed casually with high fat feed for 12 weeks. After 8 weeks of feeding, the animals of Blank and HFD were fed with deionized water by a tube once a day; the animals of PS were fed with silymarin by a tube once a day; and the animals of Test Group were fed with test compounds by a tube once a day for a duration of 4 or 8 weeks. Before testing and in the eighth, twelfth, and sixteenth week after testing, blood was collected from the cheek or the heart. At the end of testing, all mice were weighted and then sacrificed, and blood was collected from the cheek or the heart simultaneously. The blood specimens of mice rested at room temperature for one hour to clot, and then the serum was separated by centrifugation in a refrigeration centrifuge at 15,700×g at 4° C. for 5 minutes. Afterwards, biochemical indices of liver function, including aspartate transaminase (AST), alanine aminotransferase (ALT), triglyceride (TG), total cholesterol (TCHO/TC), low-density lipoprotein cholesterol (LDL-C), and high-density lipoprotein cholesterol (HDL-C), were detected by the automatic blood biochemistry analyzer. In addition, abdominal fat and liver specimens were taken from the abdomens of sacrificed mice and weighted to compare the weight of fat and liver and obtain the ratio of liver weight to body weight. […] The cut sections proceeded with H&E staining for histopathological observation. Moreover, the rest of the liver was frozen for preservation and detection of the contents of triglyceride and total cholesterol in the liver. Furthermore, the liver function of animals of each group were analyzed by Galactose Single Point Method, which was recognized and recommended for quantification of remaining liver function in clinical use by U.S. FDA and Ministry of Health and Welfare, Taiwan. […] One hour after the administration, about 0.5 ml of whole blood was taken by using a filter paper to evaluate liver function of mice. The higher the value of GSP was, the worse the remaining liver function would be. (FDA: “Guidance for Industry: Pharmacokinetics in Patients with Impaired. Hepatic Function-Study Design, Data Analysis and Impact on Dosing and. Labeling. 2003. At the end of the test, all mice were sacrificed. […] Afterwards, xylene was replaced with hot paraffin solution. At last, the tissue was embedded with paraffin solution. The finished paraffin specimen was cut into […] paraffin sections by the microtome. The sections were pasted on clean slides, dried at 37° C., and then stained by H&E staining. In order to observe the changes of lesion, fat accumulation, necrosis, or fibrosis in liver cells when there was an ongoing liver damage, liver tissues were H&E stained to evaluate the degree of liver fat accumulation. All the histopathological sections were cut from the same position on the largest right lobe of liver for eliminating bias in subjective observation, and then subject to pathological staining. As for the assessment of semi-quantitative analysis in pathology, it had to be confirmed by a physician or a veterinary pathologist who conducted a double-blind analysis to score (NAS score) and compare all the sections without knowing the test design. […]
# [2] = target: CYP2E1 (Homo sapiens, UniProt P05181); assay: CYP2E1 inhibitory activity assay in human liver microsomes (CZX to 6-OH-CZX)
# Procedure: After addition of the test sample, the amount of CYP450 isozyme metabolite standard 6-OH-CZX (6-Hydroxy-Chlorzoxazone) is specific used for calculation of the CYP450 isozyme (CYP2E1) inhibition ratio of the test sample by using the amount of 6-OH-CZX of the control group as the baseline.
# All samples were tested in triplicate. To determine the percentage inhibition, each test compound was dissolved in 1, 2, 4 μg/mL to three different concentrations. The CYP2E1 activity levels in the presence of the test compounds were compared with the control incubations. The 500-μL reaction mixture, containing 0.5 mg of microsomal protein, was incubated with 320 μM CZX in the presence of 5 mM MgCl2 and 1 mM NADPH in 50 mM phosphate buffer with pH 7.4 at 37° C. for 30 min. The reaction was terminated by ice-cold acetonitrile, and then 4-hydroxyl tolbutamide was added as an internal standard. The organic phase was evaporated to dryness and reconstituted into the mobile phase (methanol:water=1:1) prior to liquid chromatography-tandem mass spectrometry (LC-MS/MS) analysis. An API 3000 triple-quadrupole mass spectrometer equipped with an ion-spray (ESI) source was used to determine 6-OH-CZX in the human liver microsomes. The ESI interface was used in the positive-ion mode. The 6-OH-CZX was monitored at a transition of m/z 284.5→185.9.
# The CYP450 isozyme activity levels in the presence of the test compounds were compared with the control incubations.
# [3] = 1.5 mg/kg, test period of 4 weeks
# [4] = 4.5 mg/kg, test period of 4 weeks
# [5] = 7.5 mg/kg, test period of 4 weeks
# Sequence of CYP2E1 (P05181 whole entry): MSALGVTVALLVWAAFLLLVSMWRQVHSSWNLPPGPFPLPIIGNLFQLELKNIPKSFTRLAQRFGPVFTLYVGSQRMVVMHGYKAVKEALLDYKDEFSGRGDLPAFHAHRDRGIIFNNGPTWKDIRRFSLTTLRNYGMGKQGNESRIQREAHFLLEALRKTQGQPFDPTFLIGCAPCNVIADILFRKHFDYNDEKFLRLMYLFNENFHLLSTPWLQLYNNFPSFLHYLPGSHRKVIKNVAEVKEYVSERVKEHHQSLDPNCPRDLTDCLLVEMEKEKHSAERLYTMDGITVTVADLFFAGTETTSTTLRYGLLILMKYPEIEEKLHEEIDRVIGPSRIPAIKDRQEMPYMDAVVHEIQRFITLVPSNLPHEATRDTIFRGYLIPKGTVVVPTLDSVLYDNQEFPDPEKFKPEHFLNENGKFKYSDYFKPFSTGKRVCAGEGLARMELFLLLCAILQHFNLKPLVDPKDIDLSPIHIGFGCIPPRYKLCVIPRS
structure (smiles),measurement,setting,value
OC[C@@H](O)[C@@H](O)[C@H](O)[C@H](O)CO [Mannitol],weight of abdominal fat,[1],reduce the weight of abdominal fat in animals significantly
same,GSH,[1]; [3],1502.5 ± 276.9 U/L
same,Gpx,[1]; [3],2580.0 ± 555.2 U/L
same,Grd,[1]; [3],95.3 ± 22.1 U/L
same,SOD,[1]; [3],367.3 ± 35.6 U/L
same,GSH,[1]; [4],1605.1 ± 305.9 U/L
same,Gpx,[1]; [4],3423.3 ± 547.8 U/L
same,Grd,[1]; [4],110.1 ± 18.4 U/L
same,SOD,[1]; [4],429.2 ± 85.2 U/L
same,GSH,[1]; [5],2147.7 ± 459.1 U/L
same,Gpx,[1]; [5],3738.3 ± 665.1 U/L
same,Grd,[1]; [5],117.6 ± 32.0 U/L
same,SOD,[1]; [5],462.8 ± 52.8 U/L
same,Abdominal fat weight,[1]; 1.5 mg/kg,2.0 ± 0.3 g
same,Increase of body weight,[1]; 1.5 mg/kg,10.9 ± 7.4 g
same,Liver weight,[1]; 1.5 mg/kg,1.4 ± 0.2 g
same,ALT,[1]; 1.5 mg/kg,40.8 ± 11.4 U/L
same,AST,[1]; 1.5 mg/kg,187.2 ± 142.1 U/L
same,TC in liver,[1]; 1.5 mg/kg,3.4 ± 0.6 mg/g liver
same,TG in liver,[1]; 1.5 mg/kg,61.8 ± 32.6 mg/g liver
same,Abdominal fat weight,[1]; 4.5 mg/kg,2.7 ± 0.3 g
same,Increase of body weight,[1]; 4.5 mg/kg,11.1 ± 7.7 g
same,Liver weight,[1]; 4.5 mg/kg,1.4 ± 0.2 g
same,ALT,[1]; 4.5 mg/kg,44.5 ± 15.9 U/L
same,AST,[1]; 4.5 mg/kg,107.6 ± 54.3 U/L
same,TC in liver,[1]; 4.5 mg/kg,7.2 ± 2.8 mg/g liver
same,TG in liver,[1]; 4.5 mg/kg,71.5 ± 45.5 mg/g liver
same,Abdominal fat weight,[1]; 7.5 mg/kg,2.4 ± 0.3 g
same,Increase of body weight,[1]; 7.5 mg/kg,10.3 ± 8.5 g
same,Liver weight,[1]; 7.5 mg/kg,1.4 ± 0.1 g
same,ALT,[1]; 7.5 mg/kg,25.0 ± 10.8 U/L
same,AST,[1]; 7.5 mg/kg,63.3 ± 7.7 U/L
same,TC in liver,[1]; 7.5 mg/kg,4.7 ± 1.2 mg/g liver
same,TG in liver,[1]; 7.5 mg/kg,53.8 ± 24.4 mg/g liver
same,NAS,[1]; [5],1.7 ± 0.8 mg/g liver
same,reduction in ALT value,"[1]; 4-week treatment, p<0.005",about 64%
same,reduction in AST value,"[1]; 4-week treatment, p<0.005",about 60%
same,liver TC,[1],reduce TC in liver significantly
same,liver TG,[1],reduce TG in liver significantly
same,liver antioxidant activity,[1]; 4 weeks,improve antioxidant activity significantly
same,"liver damage, NAS",[1]; 4 weeks,reduce liver damage significantly
same,ALT and AST values,[1],reduce ALT and AST values significantly
same,"liver tissue sections, H&E","[1]; treated for 4 weeks, FIG. 5",large vesicular fat droplets within liver cells in liver tissue section were significantly reduced
same,P450 2E1 inhibitor activity,[2],effective as P450 2E1 inhibitors
same,CYP 2E1 inhibition ratio (%),[2]; 1 μg/mL,30.1 ± 2.4%
same,CYP 2E1 inhibition ratio (%),[2]; 2 μg/mL,34.1 ± 4.1%
same,CYP 2E1 inhibition ratio (%),[2]; 4 μg/mL,40.3 ± 1.6%
OC[C@H]1O[C@H](O[C@]2(CCl)O[C@H](CCl)[C@@H](O)[C@@H]2O)[C@H](O)[C@@H](O)[C@H]1Cl [Sucralose],weight of abdominal fat,[1],reduce the weight of abdominal fat in animals significantly
same,GSH,[1]; [3],1448.0 ± 281.5 U/L
same,Gpx,[1]; [3],2995.0 ± 651.1 U/L
same,Grd,[1]; [3],100.0 ± 18.6 U/L
same,SOD,[1]; [3],373.0 ± 50.4 U/L
same,GSH,[1]; [5],1609.1 ± 201.1 U/L
same,Gpx,[1]; [5],3334.0 ± 377.7 U/L
same,Grd,[1]; [5],90.4 ± 17.2 U/L
same,SOD,[1]; [5],399.0 ± 34.5 U/L
same,Abdominal fat weight,[1]; 1.5 mg/kg,2.1 ± 0.6 g
same,Increase of body weight,[1]; 1.5 mg/kg,17.0 ± 5.6 g
same,Liver weight,[1]; 1.5 mg/kg,1.5 ± 0.2 g
same,ALT,[1]; 1.5 mg/kg,30.9 ± 16.8 U/L
same,AST,[1]; 1.5 mg/kg,127.0 ± 31.2 U/L
same,TC in liver,[1]; 1.5 mg/kg,3.0 ± 0.9 mg/g liver
same,TG in liver,[1]; 1.5 mg/kg,68.9 ± 37.5 mg/g liver
same,Abdominal fat weight,[1]; 7.5 mg/kg,2.4 ± 0.3 g
same,Increase of body weight,[1]; 7.5 mg/kg,8.3 ± 5.4 g
same,Liver weight,[1]; 7.5 mg/kg,1.4 ± 0.1 g
same,ALT,[1]; 7.5 mg/kg,32.3 ± 10.1 U/L
same,AST,[1]; 7.5 mg/kg,74.3 ± 18.6 U/L
same,TC in liver,[1]; 7.5 mg/kg,5.0 ± 0.9 mg/g liver
same,TG in liver,[1]; 7.5 mg/kg,56.8 ± 20.0 mg/g liver
same,liver TC,[1],reduce TC in liver significantly
same,liver TG,[1],reduce TG in liver significantly
same,liver antioxidant activity,[1]; 4 weeks,improve antioxidant activity significantly
same,ALT and AST values,[1],reduce ALT and AST values significantly
same,P450 2E1 inhibitor activity,[2],effective as P450 2E1 inhibitors
same,CYP 2E1 inhibition ratio (%),[2]; 1 μg/mL,25.1 ± 1.4%
same,CYP 2E1 inhibition ratio (%),[2]; 2 μg/mL,30.2 ± 2.8%
same,CYP 2E1 inhibition ratio (%),[2]; 4 μg/mL,32.9 ± 4.6%
